Measured values reported in patent US20210238257A1, “De Novo Formation of the Biliary System by Hepatocyte Transdifferentiation” (THE REGENTS OF THE UNIVERSITY OF CALIFORNIA, priority 2018, published 2021).

Tested on: hepatocytes lacking RBPJ and HNF6
Assay: In vitro conversion assay: 3D culture of hepatocyte spheroids in collagen gels
Format: cell-based, mouse
Conditions: 10 μM SB-431542 vs vehicle (DMSO)
Protocol: Genomic DNA was isolated from cells using QIAamp DNA Micro Kit or DNeasy Blood & Tissue Kit (Qiagen). RNA was extracted using Trizol Reagent (Thermo Fisher Scientific) and purified by isopropanol precipitation (cells in collagen gel) or purified using RNAeasy Mini Kit (Qiagen) (liver tissue). Reverse transcription was performed using qScript cDNA Supermix (Quanta Biosciences). qPCR was performed using SYBR green reagent (Thermo Fisher Scientific) in a ViiA 7 system (Thermo Fisher Scientific). Reactions were performed in triplicate, and expression was normalized to an Rbpj (genotyping) or Gapdh (Glyceraldehyde-3-phosphate Dehydrogenase; gene expression) reference and quantified using the ΔΔCt method.
In vitro 3D culture of hepatocytes to induce biliary conversion was carried out as previously reported^21 with the following modifications. Hepatocytes were isolated from 8-10-week-old Rbpj^f/f;Hnf6^f/f mice injected with 1×10^12 vgs of AAV8-Ttr-Cre 2 weeks prior to delete RBPJ and HNF6. Hepatocytes were isolated by 2-step collagenase perfusion followed by purification through a Percoll gradient, all in the absence of serum. Cells were grown on Primaria plates for 6 days to form spheroids. Spheroids were cultured in collagen gels (Cultrex Rat Collagen I, Lower Viscosity, Trevigen) in the presence of 10 μM SB-431542 (Selleckchem) or vehicle (DMSO). The medium was changed every other day.

## NC(=O)c1ccc(-c2nc(-c3ccc4c(c3)OCO4)c(-c3ccccn3)[nH]2)cc1 [SB-431542]
  biliary differentiation and morphogenesis of hepatocytes: blocks biliary differentiation and morphogenesis
